Results from patent publication US10716305B2, “Anti-bacterial compositions” (priority 2015, dated 2020).
In brackets after ≈: the same amount, converted by molar mass. Where two headings read alike, the source gives them in different places. Values belong to the compound of their own block, whether it stands above or below them.

Key:
[1] = tested on: MatTek EpiDerm tissue (Reconstructed Human Epidermis); assay: MatTek EpiDerm Skin Irritation Test (SIT); format: cell-based; conditions: 60 minutes treatment
Method: This test was conducted to predict dermal irritation potential of test articles in the context of identification and classification of skin irritation hazard according to the European Union (EU) classification ([…] or no label), United Nations Globally Harmonized System of Classification and Labeling of Chemicals (GHS) classification system (Category 2 and non-irritants), and OECD Guideline for the Testing of Chemicals No. 439-In Vitro Skin Irritation: Reconstructed Human Epidermis Test Method. This study was designed based on MatTek protocol in vitro EpiDermTM Skin Irritation Test. MatTek EpiDermTM tissue samples were treated in triplicate with the test composition, Negative Control and Positive Control for 60 minutes. Following treatment and subsequent incubation time, the viability of the tissues was determined using Methyl thiazole tetrazolium (MTT) uptake and reduction. The absorbance of each sample was measured at 540 nm. The viability was then expressed as a percent of control values. If the mean tissue viability was ≤50%, the test material was classified as an irritant; if the mean tissue viability was […].

[2] = tested on: bovine corneas; assay: OECD Bovine Corneal Opacity and Permeability Test (BCOP); conditions: 0.75 ml, 10-minute exposure
Method: This protocol is based on the methodology described in the current OECD Guideline for the Testing of Chemicals #437.
Following a 10-minute exposure for each group of dosed corneas, opacity measurements and sodium fluorescein permeability were determined.

[3] = tested on: BALB/C 3T3 mouse fibroblast cell line; assay: 3T3 Neutral Red Uptake Phototoxicity Assay; format: cell-based; conditions: for EC50: Mus musculus
Method: The cytotoxicity and phototoxicity of the test composition to 3T3 cells (in the presence or absence of UVA light) was assessed by Neutral Red Uptake. The 3T3 Neutral Red Uptake Phototoxicity Assay (3T3 NRU PT), based on the OECD Guideline for Testing of Chemicals: […] An Ultraviolet-Visible light (UV-VIS) spectral scan was performed on a solution containing 0.1% of the test composition in a solution of 1% DMSO/HBSS. […] For both the range-finding screen and the definitive test of the 3T3 assay, BALB/C 3T3 cells were seeded in the central 60 wells of duplicate 96-well microplates and maintained in culture for approximately 24 hours. The two 96-well plates were then preincubated with eight different concentrations of the test composition for approximately one hour. After preincubation, one plate was irradiated with a dose of 5 J/cm^2 Solar Simulated Light (SSL, containing wavelengths in the UVA and visible regions with >99% of UVB blocked out), while the duplicate plate was kept in the dark (No SSL). After UV irradiation, the treatment medium was replaced with culture medium and, after approximately 24 hours, cell viability was determined by neutral red uptake for three hours. A range finding screen was performed to determine the acceptable concentrations for the definitive test. MS Excel® was used to calculate the EC50 values and Photo-Irritant Factor (PIF) for the test article and the Chlorpromazine (CPZ) positive control in both the Screen and the Definitive test.

[4] = tested on: MRSA; assay: Comparative efficacy study, oral gavage, MRSA induction IP; format: in vivo, BALB/C mice; conditions: oral treatment for 7 days, Composition A 100 mg/kg, antibiotics per RX dose converted to mice
Method: Efficacy Study in comparison to leading anti-MRSA antibiotics was conducted in BALB/C mice.
7a. Administration Route: Oral Gavage
Group 1 (6 mice males)—MRSA Induction IP no treatment
Group 2 (6 mice males)—MRSA Induction IP—oral treatment for 7 days
Group 3 (6 mice males)—No Induction—oral treatment for 7 days
For the antibiotics the dose was as per RX prescription converted to mice Body Weights.
1—Erythromycin 250 mg/pt b.i.d. equals 2.1 mg/20 g mouse/day 300 mg total/12 mice
2—Clindamycin 150 mg/pt b.i.d. equals 1.25 mg/20 g mouse/day 200 mg total/12 mice
3—Vancomycine 250 mg/pt b.i.d. equals 2.1 mg/20 g mouse/day 300 mg total/12 mice

SMILES: CCCCCCCCCCCCOS(=O)(=O)[O-].[Na+] [5% Sodium Dodecyl Sulfate, Sodium Dodecyl Sulfate]
Irritancy Classification [1]: Irritant (mean tissue viability was ≤50%, the test material was classified as an irritant)
Mean Tissue Viability ([1]; MTT, percent of control): 3.1%

Corrected Mean Opacity Score [2]: 22.66
SMILES: CCO [100% Ethanol, Ethanol]
In Vitro Irritation Score (IVIS) [2]: 32.34

SMILES: CN(C)CCCN1c2ccccc2Sc2ccc(Cl)cc21 [CPZ, Chlorpromazine]
EC50 ([3]; BALB/c3T3, light or radiation study, 5 J/cm^2 Solar Simulated Light, range tested 0.22-3.16 μg/ml, read-out: EC50 + SSL): 0.4 µg/mL
EC50 ([3]; BALB/c3T3, dark, range tested 6.81-100 μg/ml, read-out: EC50 No SSL): 18.8 µg/mL (≈ 59 µM)
PIF (Photo-Irritant Factor) ([3]; definitive test): 47.0

SMILES: CC[C@H]1OC(=O)[C@H](C)[C@@H](O[C@H]2C[C@@](C)(OC)[C@@H](O)[C@H](C)O2)[C@H](C)[C@@H](O[C@@H]2O[C@H](C)C[C@H](N(C)C)[C@H]2O)[C@](C)(O)C[C@@H](C)C(=O)[C@H](C)[C@@H](O)[C@]1(C)O [Erythromycin]
blood cell culture [4]: two colonies

SMILES: CN[C@H](CC(C)C)C(=O)N[C@H]1C(=O)N[C@@H](CC(N)=O)C(=O)N[C@H]2C(=O)N[C@H]3C(=O)N[C@H](C(=O)N[C@H](C(=O)O)c4cc(O)cc(O)c4-c4cc3ccc4O)[C@H](O)c3ccc(c(Cl)c3)Oc3cc2cc(c3O[C@@H]2O[C@H](CO)[C@@H](O)[C@H](O)[C@H]2O[C@H]2C[C@](C)(N)[C@H](O)[C@H](C)O2)Oc2ccc(cc2Cl)[C@H]1O [vancomycin, Vancomycin]
blood cell culture [4]: one colony
